Patent publication US20260355165A1, “2,3,4,9-TETRAHYDRO-1H-PYRIDO[3,4-B]INDOLE DERIVATIVES AS ESTROGEN RECEPTOR MODULATORS FOR THE TREATMENT OF CANCER” (Olema Pharmaceuticals, Inc., priority 2022, published 2026)

Target: T1, estrogen receptor (Homo sapiens, UniProt P03372)
T1 construct: endogenous in cells; host or cells: ECC-1 cells
T1 sequence (P03372 1-595): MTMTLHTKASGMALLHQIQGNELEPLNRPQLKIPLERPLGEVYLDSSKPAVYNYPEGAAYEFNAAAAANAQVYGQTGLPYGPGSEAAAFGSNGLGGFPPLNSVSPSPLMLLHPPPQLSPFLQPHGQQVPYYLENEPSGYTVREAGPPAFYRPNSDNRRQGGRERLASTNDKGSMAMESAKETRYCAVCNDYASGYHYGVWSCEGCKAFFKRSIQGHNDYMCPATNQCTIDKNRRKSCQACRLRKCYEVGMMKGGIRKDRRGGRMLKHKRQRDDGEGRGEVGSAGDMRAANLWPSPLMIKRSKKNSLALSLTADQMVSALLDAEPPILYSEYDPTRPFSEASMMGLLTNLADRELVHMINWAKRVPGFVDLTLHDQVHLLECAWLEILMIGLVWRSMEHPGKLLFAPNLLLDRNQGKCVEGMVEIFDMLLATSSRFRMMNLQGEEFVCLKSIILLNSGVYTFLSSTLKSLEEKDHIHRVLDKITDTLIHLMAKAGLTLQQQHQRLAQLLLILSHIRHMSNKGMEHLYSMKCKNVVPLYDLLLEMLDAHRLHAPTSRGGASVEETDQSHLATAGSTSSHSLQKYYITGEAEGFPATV
Assay: AP assay (alkaline phosphatase activity in ECC-1 cells), agonist mode (absence of E2) and antagonist mode (presence of 500 pM E2)
Format: cell-based
Details: 3 days, AP activity normalized to 500 pM E2 alone, agonist and antagonist mode combined
Procedure, shortened: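 Read-out is absorbance at 405 nm from p-nitrophenyl phosphate cleavage (40 min, 42 °C), expressed relative to 500 pM E2 alone. Compounds were applied to ECC-1 cells in hormone-depleted medium for 3 days, either alone (agonist) or alongside 500 pM E2 (antagonist).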

CC1CN(Cc2cnc3[nH]cc([C@@H]4c5[nH]c6ccccc6c5C[C@@H](C)N4CC(C)(C)F)c3c2)C1 [Compound I-59, (1R,3R)-2-(2-fluoro-2-methyl-propyl)-3-methyl-1-[5-[(3-methylazetidin-1-yl)methyl]-1H-pyrrolo[2,3-b]pyridin-3-yl]-1,3,4,9-tetrahydropyrido[3,4-b]indole]
Activity (estrogen receptor modulation, e.g., agonism and antagonism): + (estrogen receptor agonism having (i) at least 80% increase in the E2-normalized signal in the AP assay (agonist mode) and (ii) no more than 80% reduction in the E2-normalized signal in the AP assay (antagonist mode))

CCN1CC(n2cc3cc([C@@H]4c5[nH]c6ccccc6c5C[C@@H](C)N4CC(F)(F)CO)ccc3n2)C1 (racemic) [Compound I-107, 2,2-difluoro-3-[rac-(1R,3R)-1-[2-(1-ethylazetidin-3-yl)indazol-5-yl]-3-methyl-1,3,4,9-tetrahydropyrido[3,4-b]indol-2-yl]propan-1-ol]
Activity (estrogen receptor modulation, e.g., agonism and antagonism): + (estrogen receptor agonism having (i) at least 80% increase in the E2-normalized signal in the AP assay (agonist mode) and (ii) no more than 80% reduction in the E2-normalized signal in the AP assay (antagonist mode))

C[C@@H]1Cc2c([nH]c3ccccc23)[C@@H](c2ccc3[nH]c(CN4CC(N(C)C)C4)cc3c2)N1CC(C)(C)F [Compound I-99, 1-[[5-[(1R,3R)-2-(2-fluoro-2-methyl-propyl)-3-methyl-1,3,4,9-tetrahydropyrido[3,4-b]indol-1-yl]-1H-indol-2-yl]methyl]-N,N-dimethyl-azetidin-3-amine]
Activity (estrogen receptor modulation, e.g., agonism and antagonism): ++ (estrogen receptor antagonism having (i) between 10% and 80% increase in the E2-normalized signal in the AP assay (agonist mode) and (ii) between 10% and 80% reduction in the E2-normalized signal in the AP assay (antagonist mode))

C[C@@H]1Cc2c([nH]c3ccccc23)[C@@H](c2ccc3c(cnn3C3CN(CCCF)C3)c2)N1CC(F)(F)CO (racemic) [Compound I-106, 2,2-difluoro-3-[rac-(1R,3R)-1-[1-[1-(3-fluoropropyl)azetidin-3-yl]indazol-5-yl]-3-methyl-1,3,4,9-tetrahydropyrido[3,4-b]indol-2-yl]propan-1-ol]
Activity (estrogen receptor modulation, e.g., agonism and antagonism): ++ (estrogen receptor antagonism having (i) between 10% and 80% increase in the E2-normalized signal in the AP assay (agonist mode) and (ii) between 10% and 80% reduction in the E2-normalized signal in the AP assay (antagonist mode))

C[C@@H]1Cc2c([nH]c3ccccc23)[C@@H](c2cc3[nH]c(CN4CC(CF)C4)cc3s2)N1CC(C)(C)F [Compound I-64, 5-[[3-(fluoromethyl)azetidin-1-yl]methyl]-2-[(1S,3R)-2-(2-fluoro-2-methyl-propyl)-3-methyl-1,3,4,9-tetrahydropyrido[3,4-b]indol-1-yl]-4H-thieno[3,2-b]pyrrole]
Activity (estrogen receptor modulation, e.g., agonism and antagonism): ++ (estrogen receptor antagonism having (i) between 10% and 80% increase in the E2-normalized signal in the AP assay (agonist mode) and (ii) between 10% and 80% reduction in the E2-normalized signal in the AP assay (antagonist mode))

COC1CN(Cc2cc3cc([C@@H]4c5[nH]c6ccccc6c5C[C@@H](C)N4CC(C)(C)F)ccc3[nH]2)C1 [Compound I-94, (1R,3R)-2-(2-fluoro-2-methyl-propyl)-1-[2-[(3-methoxyazetidin-1-yl)methyl]-1H-indol-5-yl]-3-methyl-1,3,4,9-tetrahydropyrido[3,4-b]indole]
Activity (estrogen receptor modulation, e.g., agonism and antagonism): + (estrogen receptor agonism having (i) at least 80% increase in the E2-normalized signal in the AP assay (agonist mode) and (ii) no more than 80% reduction in the E2-normalized signal in the AP assay (antagonist mode))

C[C@@H]1Cc2c([nH]c3ccccc23)[C@@H](c2ccc3[nH]c(CN4CC(CF)C4)cc3c2)N1CC(F)(F)CO [Compound I-45, 2,2-difluoro-3-[(1R,3R)-1-[2-[[3-(fluoromethyl)azetidin-1-yl]methyl]-1H-indol-5-yl]-3-methyl-1,3,4,9-tetrahydropyrido[3,4-b]indol-2-yl]propan-1-ol]
Activity (estrogen receptor modulation, e.g., agonism and antagonism): +++ (estrogen receptor antagonism (i) with pIC50 greater than 7.5 and at least a 10% reduction in the E2-normalized signal in the AP assay (antagonist mode); and (ii) no more than 10% increase in E2-normalized signal in the AP assay (agonist mode))

C[C@@H]1Cc2c([nH]c3ccccc23)[C@@H](c2n[nH]c3cc(CN4CC5(COC5)C4)ccc23)N1CC(F)F [Compound I-39, 6-((3-((1S,3R)-2-(2,2-difluoroethyl)-3-methyl-2,3,4,9-tetrahydro-1H-pyrido[3,4-b]indol-1-yl)-1H-indazol-6-yl)methyl)-2-oxa-6-azaspiro[3.3]heptane]
Activity (estrogen receptor modulation, e.g., agonism and antagonism): ++ (estrogen receptor antagonism having (i) between 10% and 80% increase in the E2-normalized signal in the AP assay (agonist mode) and (ii) between 10% and 80% reduction in the E2-normalized signal in the AP assay (antagonist mode))

C[C@@H]1Cc2c([nH]c3ccccc23)[C@@H](c2c[nH]c3cc(CC4CN(C)C4)ccc23)N1CC(C)(C)F [Compound I-30, (1R,3R)-2-(2-fluoro-2-methyl-propyl)-3-methyl-1-[6-[(1-methylazetidin-3-yl)methyl]-1H-indol-3-yl]-1,3,4,9-tetrahydropyrido[3,4-b]indole]
Activity (estrogen receptor modulation, e.g., agonism and antagonism): + (estrogen receptor agonism having (i) at least 80% increase in the E2-normalized signal in the AP assay (agonist mode) and (ii) no more than 80% reduction in the E2-normalized signal in the AP assay (antagonist mode))

C[C@@H]1Cc2c([nH]c3ccccc23)[C@@H](c2cc3cc(CN4CC(CF)C4)ccc3[nH]2)N1CC(C)(C)F [Compound I-41, (1R,3R)-1-[5-[[3-(fluoromethyl)azetidin-1-yl]methyl]-1H-indol-2-yl]-2-(2-fluoro-2-methyl-propyl)-3-methyl-1,3,4,9-tetrahydropyrido[3,4-b]indole]
Activity (estrogen receptor modulation, e.g., agonism and antagonism): ++ (estrogen receptor antagonism having (i) between 10% and 80% increase in the E2-normalized signal in the AP assay (agonist mode) and (ii) between 10% and 80% reduction in the E2-normalized signal in the AP assay (antagonist mode))

C[C@@H]1Cc2c([nH]c3ccccc23)[C@@H](c2ccc3[nH]c(CN4CC5(CC(F)C5)C4)cc3c2)N1CC(C)(C)F [Compound I-52, (1R,3R)-1-[2-[(6-fluoro-2-azaspiro[3.3]heptan-2-yl)methyl]-1H-indol-5-yl]-2-(2-fluoro-2-methyl-propyl)-3-methyl-1,3,4,9-tetrahydropyrido[3,4-b]indole]
Activity (estrogen receptor modulation, e.g., agonism and antagonism): ++ (estrogen receptor antagonism having (i) between 10% and 80% increase in the E2-normalized signal in the AP assay (agonist mode) and (ii) between 10% and 80% reduction in the E2-normalized signal in the AP assay (antagonist mode))

CC1CN(Cc2cc3cc([C@@H]4c5[nH]c6ccccc6c5C[C@@H](C)N4CC(C)(C)F)ccc3[nH]2)C1 [Compound I-42, (1R,3R)-2-(2-fluoro-2-methyl-propyl)-3-methyl-1-[2-[(3-methylazetidin-1-yl)methyl]-1H-indol-5-yl]-1,3,4,9-tetrahydropyrido[3,4-b]indole]
Activity (estrogen receptor modulation, e.g., agonism and antagonism): ++ (estrogen receptor antagonism having (i) between 10% and 80% increase in the E2-normalized signal in the AP assay (agonist mode) and (ii) between 10% and 80% reduction in the E2-normalized signal in the AP assay (antagonist mode))

C[C@@H]1Cc2c([nH]c3ccccc23)[C@@H](c2cc3nc(CN4CC(CF)C4)oc3cc2F)N1CC(C)(C)F [Compound I-78, 6-fluoro-2-[[3-(fluoromethyl)azetidin-1-yl]methyl]-5-[(1R,3R)-2-(2-fluoro-2-methyl-propyl)-3-methyl-1,3,4,9-tetrahydropyrido[3,4-b]indol-1-yl]-1,3-benzoxazole]
Activity (estrogen receptor modulation, e.g., agonism and antagonism): + (estrogen receptor agonism having (i) at least 80% increase in the E2-normalized signal in the AP assay (agonist mode) and (ii) no more than 80% reduction in the E2-normalized signal in the AP assay (antagonist mode))

CC1CN(Cc2ccc3c([C@@H]4c5[nH]c6ccccc6c5C[C@@H](C)N4CC(F)F)n[nH]c3c2)C1 [Compound I-37, (1S,3R)-2-(2,2-difluoroethyl)-3-methyl-1-(6-((3-methylazetidin-1-yl)methyl)-1H-indazol-3-yl)-2,3,4,9-tetrahydro-1H-pyrido[3,4-b]indole]
Activity (estrogen receptor modulation, e.g., agonism and antagonism): ++ (estrogen receptor antagonism having (i) between 10% and 80% increase in the E2-normalized signal in the AP assay (agonist mode) and (ii) between 10% and 80% reduction in the E2-normalized signal in the AP assay (antagonist mode))

C[C@@H]1Cc2c([nH]c3ccccc23)[C@@H](c2n[nH]c3cc(CN4CC(CF)C4)ccc23)N1CC(F)(F)CO [Compound I-16, 2,2-difluoro-3-[(1S,3R)-1-[6-[[3-(fluoromethyl)azetidin-1-yl]methyl]-1H-indazol-3-yl]-3-methyl-1,3,4,9-tetrahydropyrido[3,4-b]indol-2-yl]propan-1-ol]
Activity (estrogen receptor modulation, e.g., agonism and antagonism): ++ (estrogen receptor antagonism having (i) between 10% and 80% increase in the E2-normalized signal in the AP assay (agonist mode) and (ii) between 10% and 80% reduction in the E2-normalized signal in the AP assay (antagonist mode))
